The results in this text go back to PMC3701070 (PLoS ONE, 2013).

One series deals with A375. The series can be described thus: Cell growth assay. In kind it is cell-based. The following applies: Homo sapiens, A-375, 72 h; A375, BRAF(V600E), RAS WT, 3-day; read-out: gIC50. On the procedure: (§1) Growth was measured with CellTiter-Glo® (Promega) reagent per the manufacturer’s protocol, using a PerkinElmer EnVision™ reader at t = 0 and 72 h. IC50 values for cell growth inhibition (gIC50) were determined.
(§2) (PDF) Click here for additional data file.
Supplementary file pone.0067583.s006.pdf: Table S3 Enzymatic and cellular activity of tool inhibitors used in the rat skin lesion formation study. Activity of GSK2366297A (BRAF tool inhibitor) and GSK2091975 (MEK tool inhibitor, active form of prodrug GSK2091976) were measured against their respective enzyme targets as described in the Materials and Methods section. Cellular activity was determined for each by inhibition of ERK phosphorylation in SK-MEL-28 cells and growth of A375 cells, both of which express BRAF^V600E. (PDF) Click here for additional data file.

In the next series the test system is HCT-116. The series can be described thus: Cell growth assay. In kind it is cell-based, human. As to conditions: HCT-116, RAF WT, KRAS(G13D), 3-day. On the procedure:
as §1, §2

Series [1] concerns the target T1, BRAF (Canis lupus familiaris, UniProt A0A8I3SCX1).
T1 construct: Full-length BRAF genes were tagged with 6×His-SBP; 6xHis-SBP; made in house; host or cells: HEK293F
The series can be described thus: BRAF/CRAF-activated MEK ATPase coupled assay. It counts as biochemical. The following applies: Enzyme BRAF, Dog. How it is done: (§3) Various BRAF orthologs (human, cynomolgus monkey, dog, rat) were cloned in-house. […] Full-length BRAF genes were tagged with 6×His-SBP and transiently transfected in a HEK293F expression system (Invitrogen K9000-01 protocol). Transfected cells were incubated at 37°C, 5% CO2 on a shaker at 80 r.p.m. for 48 h and harvested by centrifugation. BRAF proteins were purified by UltraLink®-immobilized Streptavidin affinity and Superdex™ 200 size exclusion chromatography.
(§4) N-terminal GST-tagged MEK1 was expressed in BL21[DE3]/pRR692 cells and purified by Glutathione Sepharose™ 4FF and Q-Sepharose™ chromatography. The GST tag was cleaved with TEV protease and MEK1 was purified on a Superdex™ 200 column.

Series [2] deals with BRAF (Macaca fascicularis, UniProt A0A7N9IA21). The series can be described thus: BRAF/CRAF-activated MEK ATPase coupled assay. In kind it is biochemical. The following applies: Enzyme BRAF, Cyno. On the procedure:
as §3, §4

Series [3] deals with T2, BRAF (Rattus norvegicus, UniProt A0A8I6AFV6).
T2 construct: Full-length BRAF genes were tagged with 6×His-SBP; 6xHis-SBP; made in house; host or cells: HEK293F
Description: BRAF/CRAF-activated MEK ATPase coupled assay. In kind it is biochemical. As to conditions: Enzyme BRAF. How it is done: as §3, §4

Another series concerns the target T3, NEK11 (h) (Homo sapiens, UniProt Q8NG66).
T3 construct: purchased Millipore
The series can be described thus: Kinase panel (Millipore) enzyme activity. In kind it is biochemical.

Series [4] deals with pERK in A375P (BRAF^V600E) cells. The series can be described thus: Western blot, pERK in A375P cells. It counts as cell-based. As to conditions: Homo sapiens, 8 nM, 1 h. How it is done: (§5) Cells were lysed in 25 mM Tris-HCl pH 7.5, 2 mM EDTA, 2 mM EGTA, 1% Triton X-100, 0.1% SDS, 50 mM sodium-β-glycerophosphate, 2 mM Na3VO4, 12.5 mM sodium pyrophosphate, 2× Complete EDTA-free mini protease inhibitor tablets (Roche), 2× phosphatase inhibitor cocktails I and II (Sigma-Aldrich). Protein concentrations were determined by Bio-Rad DC™ or dye-based protein assays and lysates were resolved by SDS-PAGE (Invitrogen NuPAGE®) and transferred to PVDF membranes. Membranes were blocked with Odyssey® (LI-COR Biosciences) blocking buffer and incubated with primary antibodies overnight at 4°C. Blots were washed with PBS containing 0.1% Tween-20, incubated with secondary antibodies, and washed again prior to signal detection on a LI-COR Odyssey® reader.
(§6) siRNA complexes were prepared per the manufacturer's instructions using Dharmacon RNAi duplex (Thermo Fisher Scientific), Lipofectamine™ RNAiMAX™ (Invitrogen), and Opti-MEM® (Gibco) and allowed to form at room temperature for at least 40 min. Volumes of 1 mL of RNAi complex were added to each well of a plate with 150 000 cells in complete medium (no antibiotic) and incubated at 37°C, 5% CO2 for the indicated times.
(§7) Lysates were immunoblotted for the proteins indicated.
For orientation: In western blotting, separated proteins are transferred to a membrane and probed.

Series [5] deals with pMEK in A375P (BRAF^V600E) cells. Description: Western blot, pMEK in A375P cells. The following applies: Homo sapiens, 8 nM, 1 h. In kind it is cell-based. On the procedure: as §5, §6, §7
In series [6] the test system is A375P tumor xenografts (BRAF^V600E). The series can be described thus: Pharmacodynamic markers in A375P tumor xenografts. In kind it is in vivo. The following applies: A375P xenograft, mice, 30 mg/kg oral once daily. On the procedure:
Tumors were harvested, homogenized (BD Bioscience Medimachine) in 1 mL each of ice-cold Western Blot Analysis buffer containing 4 mM sodium pyrophosphate, then centrifuged (18 000×g, 15 min, 4°C), and flash-frozen. Samples were analyzed by duplex ELISA (MesoScale Discovery) for total and phospho ERK1/2 per the manufacturer’s instructions using an MSD SI6000 reader.
A375P tumors were harvested at 6 h after the sixth daily dose with compound or vehicle, cut into samples of ∼100 mm^3 in volume, fixed in 10% neutral-buffered formalin (NBF, VWR) for 24 h, and transferred into 70% ethanol prior to paraffin embedding. Paraffin-embedded blocks were sectioned (4 µm to 5 µm) and immunostained for ppERK, Ki67, and p27^Kip1 by Mosaic Laboratories (Lake Forest, CA).
Phospho-ERK (pERK) is normalized to total ERK (tERK). Tumors harvested 6h post-last 6th dose were stained for Ki67, p27, and ppERK by immunohistochemistry and compared with pre-treatment controls (B). Data are representative of n = 3 studies and percent changes were calculated from the ratio of positively stained cells following drug treatment to those following vehicle control treatment, each as a percentage of the total cell population.

The nature of series [7]: Pharmacokinetic analysis in tumor-bearing mice. The following applies: 30 mg/kg oral once daily, blood. On the procedure: Compound concentrations were determined from flash-frozen hemolyzed blood samples (blood:water ratio of 1∶1) or tumor homogenates (tumor:water ratio of 1∶4) by HPLC/MS-MS analysis.
The test system of series [8] is Colo 205 tumor xenografts (BRAF^V600E). Description: Colo 205 tumor xenograft growth. In kind it is in vivo, mice. The text has this:
The 14-day period of dosing is indicated by the shaded gray bar.

In series [9] the test system is pMEK and pERK in HCT-116 (wild-type BRAF, mutant KRAS) cells. Description: Western blot, paradoxical MAPK activation in HCT-116 cells. The following applies: 100 nM or 300 nM, 1 h. In kind it is cell-based, human. How it is done: as §5
Lysates were immunoblotted for total ERK (tERK) and dual-phosphorylated ERK (ppERK) (B).

In series [10] the test system is A375P tumors (BRAF^V600E).
Description: Cells were implanted subcutaneously in female CD1 nu/nu mice and grown to form tumors. […] Tumor volumes were estimated twice weekly from two-dimensional caliper measurements using the prolate ellipsoid equation [drawing 1] , where v = volume (mm^3), l = length (mm), and w = width (mm), and reported as means for n of 7 or 8 mice per group. Tumor growth inhibition represents the percentage volume differential between treated and control tumors at the time when vehicle-treated tumors exceeded a volume of 1 000 mm^3. Partial regression is defined as a 50% decrease from an individual tumor's starting volume for at least 1 week (three consecutive measurements). […] All efforts were made to minimize suffering and mice were euthanized by carbon dioxide asphyxiation if at least one death occurred per treatment group, if an animal appeared moribund or in distress, or if the tumor became ulcerated.
Treatment continued until the mean tumor volume of each group reached 1 200 mm^3 or one death occurred. Mean tumor volumes are plotted with their standard error mean and complete (CR) or partial (PR) regressions are indicated for each group of n = 8 mice after 14 days of treatment.

Read-outs that look alike come from different tables or passages of the source.

BRAF (Macaca fascicularis, UniProt A0A7N9IA21), sequence (A0A7N9IA21 entry or part of it): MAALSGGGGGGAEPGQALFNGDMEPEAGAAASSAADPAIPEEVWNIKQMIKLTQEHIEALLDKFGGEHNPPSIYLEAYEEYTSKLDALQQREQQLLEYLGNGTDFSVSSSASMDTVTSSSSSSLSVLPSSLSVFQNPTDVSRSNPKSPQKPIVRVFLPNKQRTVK
T2 sequence (A0A8I6AFV6 1-804): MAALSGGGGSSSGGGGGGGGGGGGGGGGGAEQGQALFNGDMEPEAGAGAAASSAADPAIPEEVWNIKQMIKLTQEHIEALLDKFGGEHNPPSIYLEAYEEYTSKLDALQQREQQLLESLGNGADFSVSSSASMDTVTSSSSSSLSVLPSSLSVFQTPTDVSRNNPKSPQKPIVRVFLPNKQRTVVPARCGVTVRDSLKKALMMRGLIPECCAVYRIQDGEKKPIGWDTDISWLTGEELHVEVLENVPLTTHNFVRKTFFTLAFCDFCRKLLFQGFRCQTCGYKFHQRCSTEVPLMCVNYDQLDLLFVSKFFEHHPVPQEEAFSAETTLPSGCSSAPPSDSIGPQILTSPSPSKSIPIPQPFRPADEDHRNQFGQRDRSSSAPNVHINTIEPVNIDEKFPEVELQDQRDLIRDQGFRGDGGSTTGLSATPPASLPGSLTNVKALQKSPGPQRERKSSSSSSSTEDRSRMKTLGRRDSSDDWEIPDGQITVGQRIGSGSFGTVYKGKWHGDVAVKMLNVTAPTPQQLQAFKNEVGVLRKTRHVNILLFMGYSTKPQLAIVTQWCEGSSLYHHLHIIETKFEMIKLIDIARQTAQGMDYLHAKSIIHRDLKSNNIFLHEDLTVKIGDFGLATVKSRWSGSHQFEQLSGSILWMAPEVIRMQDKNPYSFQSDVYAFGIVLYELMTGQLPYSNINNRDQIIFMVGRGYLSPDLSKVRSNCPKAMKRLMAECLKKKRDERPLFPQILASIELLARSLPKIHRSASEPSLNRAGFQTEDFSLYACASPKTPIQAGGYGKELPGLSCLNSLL
T1 sequence (A0A8I3SCX1 1-803): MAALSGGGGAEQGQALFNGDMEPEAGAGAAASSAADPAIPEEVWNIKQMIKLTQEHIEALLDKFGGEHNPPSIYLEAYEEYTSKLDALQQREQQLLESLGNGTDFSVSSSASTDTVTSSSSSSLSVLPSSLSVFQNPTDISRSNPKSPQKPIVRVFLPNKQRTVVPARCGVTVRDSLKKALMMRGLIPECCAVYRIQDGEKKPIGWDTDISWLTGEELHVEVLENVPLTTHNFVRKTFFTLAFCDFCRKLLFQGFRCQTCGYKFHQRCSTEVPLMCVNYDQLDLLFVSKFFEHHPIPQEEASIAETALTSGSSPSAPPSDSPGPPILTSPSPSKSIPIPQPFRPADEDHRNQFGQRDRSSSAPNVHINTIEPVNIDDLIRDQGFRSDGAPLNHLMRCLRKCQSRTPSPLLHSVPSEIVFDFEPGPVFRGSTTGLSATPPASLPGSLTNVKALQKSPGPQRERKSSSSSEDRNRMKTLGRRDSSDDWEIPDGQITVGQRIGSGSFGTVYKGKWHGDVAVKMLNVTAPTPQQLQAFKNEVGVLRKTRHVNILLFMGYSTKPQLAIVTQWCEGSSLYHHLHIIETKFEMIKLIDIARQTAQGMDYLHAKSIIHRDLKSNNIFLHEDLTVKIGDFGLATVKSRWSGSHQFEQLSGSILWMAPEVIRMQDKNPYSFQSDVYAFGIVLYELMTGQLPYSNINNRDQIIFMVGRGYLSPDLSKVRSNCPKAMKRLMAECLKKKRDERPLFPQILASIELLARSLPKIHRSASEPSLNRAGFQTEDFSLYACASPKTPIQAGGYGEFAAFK
T3 sequence (Q8NG66 whole entry): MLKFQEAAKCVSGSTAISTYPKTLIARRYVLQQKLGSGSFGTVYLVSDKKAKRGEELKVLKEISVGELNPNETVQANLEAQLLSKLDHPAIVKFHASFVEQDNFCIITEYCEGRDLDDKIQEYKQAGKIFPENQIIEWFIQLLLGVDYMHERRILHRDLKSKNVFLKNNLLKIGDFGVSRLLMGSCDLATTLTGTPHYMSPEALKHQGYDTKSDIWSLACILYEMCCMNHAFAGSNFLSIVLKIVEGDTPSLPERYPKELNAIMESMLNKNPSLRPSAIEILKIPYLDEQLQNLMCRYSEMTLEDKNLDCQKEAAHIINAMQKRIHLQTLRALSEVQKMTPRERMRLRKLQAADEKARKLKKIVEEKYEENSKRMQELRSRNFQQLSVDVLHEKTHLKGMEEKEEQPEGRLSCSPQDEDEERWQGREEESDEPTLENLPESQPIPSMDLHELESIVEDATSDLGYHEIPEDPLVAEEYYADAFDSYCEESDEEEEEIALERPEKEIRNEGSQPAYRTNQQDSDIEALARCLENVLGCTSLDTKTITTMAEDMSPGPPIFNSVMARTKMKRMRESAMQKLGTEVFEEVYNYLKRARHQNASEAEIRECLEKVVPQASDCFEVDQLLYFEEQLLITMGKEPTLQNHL

For orientation: inhibition means the change of the read-out against control, counted positive when it falls. In the case of `CC(C)(C)c1nc(-c2cccc(NS(=O)(=O)c3c(F)cccc3F)c2F)c(-c2ccnc(N)n2)s1` [dabrafenib], the IC50 was 4 nM with A375; over 10000 nM in the series with HCT-116 (Homo sapiens, 72 h, read-out: gIC50); 4 nM on BRAF [1]; 4 nM at BRAF [2] (read-out: IC50); 3.98 nM at BRAF [2] (read-out: pIC50 +/- std. dev. (converted)); 4 nM against BRAF [3]. The compound also showed an IC50 at NEK11 (h) of 20 nM. The gIC50 result in the series with HCT-116 is listed as “insensitive”. Moreover, the inhibition at 0.008 µM in series [4] and in [5] was over 90% throughout. Besides, in series [6] (6 h after sixth dose), the “downregulation of Ki67 in tumors, immunohistochemistry” value is reported as 28%. Besides, in series [6] (6 h after sixth dose), the “downregulation of pERK (ppERK) in tumors, immunohistochemistry” value turned out to be 89%. Moreover, in [6] (6 h after sixth dose), the “upregulation of p27 in tumors, immunohistochemistry” value is 54%. For the same compound, the “time post-dosing for which reduction of tumor pERK is sustained” value in series [6] (after 7 and 14 days of dosing) is recorded as “up to 18 h”. Besides, the oral bioavailability result in series [7] is reported as “orally bioavailable”. Also, in [8] (Colo 205 xenograft, 100 mg/kg oral q.d. x 14), the partial regressions is given as 4 of 8 mice. Also, the “inhibition of tumor growth” value in series [8] (Colo 205 xenograft, 3, 10, 30 and 100 mg/kg oral q.d. x 14) was “dose-dependent inhibition of tumor growth”. Also, in [9], the “pMEK and pERK compared with DMSO control” value is “increased pMEK and pERK”. Also, the “period for which tumor growth inhibition was observed” value amounted to 14 days in series [10] (30 mg/kg for 33 days) and 20 days in series [10] (300 mg/kg for 43 days).
